Patent US11066668B2, “Compositions and methods for modulation of IKBKAP splicing” (Ionis Pharmaceuticals, Inc., priority 2012, dated 2021)
Entries after “also recorded” stand apart in the source; their conditions may differ. Oligonucleotides are written 5' to 3', each unit as a sugar letter and its base; * is a phosphorothioate linkage, no mark a phosphodiester; rarer units and linkages stand in square brackets, end groups in braces. Plain capitals give the bases only. e = 2'-O-(2-methoxyethyl) (MOE); [5mC] = 5-methylcytosine

Assays:
[1] = system: IKBKAP mRNA in GM04899 fibroblasts; test: Exon 20 inclusion in FD patient skin fibroblast line GM04899 (RT-PCR); type: cell-based, human; conditions: for % inclusion of exon 20: Lipofectamine 2000, two days, relative to IMR90 cells (100%)
Experimental: To investigate the effect of ISIS 421992 on patient-derived fibroblasts, the patient skin fibroblast line GM04899 (Coriell Cell Repository) was utilized. The cell line was derived from an individual homozygous for the major FD mutation.
GM04899 was cultured in minimal essential medium (Invitrogen) supplemented with non-essential amino acids (Invitrogen) and 20% (v/v) fetal bovine serum. The cells were grown to 40-50% confluence in 10-cm dishes. Cells were transfected with 2 nM, 5 nM, 25 nM, or 125 nM concentrations of ISIS 421992 using 12 μL Lipofectamine 2000 transfection reagent (Invitrogen). Two days later, cDNA synthesized from total RNA extracted from HEK-293 cells was amplified using the forward primer pCDNAF and reverse primer sequence IKAP21R4 to assay the splicing pattern of expressed RNAs by RT-PCR. To calculate exon 20 inclusion levels, the PCR amplicons were labeled with α^32P-dCTP. The PCR products were then separated by native PAGE, followed by phosphorimage analysis. The band intensities were quantified and values were normalized for the G+C content according to the DNA sequence. Multiple lanes for each condition represent independent experiments.
A batch of cells was treated with solvent (NaOH) only of the kinetin solution as a control. RNA from IMR90, a wild-type normal diploid lung fibroblast cell line was used as positive control. The results are expressed as percent inclusion of exon 20 compared to the exon 20 inclusion (100%) of IKBKAP mRNA in IMR90 cells.

human IKBKAP mRNA = test: Exon 20 inclusion in adult transgenic mice after intracerebroventricular infusion; type: in vivo, mouse; conditions: for Percent inclusion of exon 20 in human IKBKAP mRNA: thoracic spinal cord, day 8
Experimental: To investigate the effect of ISIS 421992 in an animal model, transgenic mice that carry the entire human IKBKAP gene with the major FD mutation, in addition to being homozygous wild type at the mouse Ikbkap locus, were obtained from an NIH core facility.
Adult mice were treated with ISIS 421992 administered by intracerebroventricular infusion at the rate of 50 μg/day, 100 μg/day, or 200 μg/day. The protocol has been previously described by Hua et al. (Genes Dev. 2010. 24: 1634-1644). Adult mice 3-4 months old and weighing 20-30 g, were anesthetized and placed on a digital stereotaxic instrument (David Kopf Instruments). A small burr hole at the surgical site 1.8 mm lateral to the sagittal suture and 0.3 mm posterior to the bregma suture was drilled through the skull above the right lateral ventricle. A cannula with a 2.2 mm stylet was positioned in the hole. The cannula was connected to an Alzet micro-osmotic pump (model 1007D, Durect Corporation) with a vinyl catheter. The pump, prefilled with the oligonucleotide solution or PBS only was implanted subcutaneously on the back and continuously infused the solution through the cannula into the lateral ventricle at a rate of 0.5 μL per hour. After a week of ICV infusion, the mice were euthanized on day 8 and RNA from the thoracic spinal cord of the transgenic mice was extracted using Trizol and following the manufacturer's protocol. Multiple lanes for each condition represent independent experiments.

For “ISIS 421992: uniform 2′-MOE 20-mer, phosphate backbone; GTCGCAAACAGTACAATGGC, SEQ ID NO 61, intron 20 (eGeTe[5mC]eGe[5mC]eAeAeAe[5mC]eAeGeTeAe[5mC]eAeAeTeGeGe[5mC])”, the “% inclusion of exon 20” value ([1]; GM04899, 2 nM) was 79%, the “% inclusion of exon 20” value ([1]; GM04899, 5 nM) was 95% and the “% inclusion of exon 20” value ([1]; GM04899, 25 nM) was 96%. The “% inclusion of exon 20” value ([1]; GM04899, 125 nM) was 97%, the “effect on the splicing defect / full-length mRNA levels, in words” value ([1]; GM04899 fibroblasts) was “almost completely suppressed the splicing defect; also recorded: as effective as treatment with kinetin for 3 days in restoring full-length mRNA levels” and the “Percent inclusion of exon 20 in human IKBKAP mRNA” value (from here on “Percent inclusion”) (human IKBKAP mRNA; ICV infusion 50 μg/day for a week) was 40%. For the same substance, the “Percent inclusion” value (human IKBKAP mRNA; ICV infusion 100 μg/day for a week) was 46%, the “Percent inclusion” value (human IKBKAP mRNA; ICV infusion 200 μg/day for a week) was 60% and the “inclusion of exon 20 in human IKBKAP mRNA, in words” value (human IKBKAP mRNA; ICV infusion 50-200 μg/day) was “dose-dependent increase in the inclusion of exon 20”.
